Results reported in patent US9840500B2, “Compounds as dual inhibitors of histone methyltransferases and DNA methyltransferases” (FUNDACIÓN PARA LA INVESTIGACIÓN MÉDICA APLICADA, priority 2014, dated 2017).

Assays:
Hep3B = experiment: Cell proliferation assay, Hep3B (HCC); format: cell-based; settings: Homo sapiens, 48 hours of treatment, Table 3
H460 = experiment: Cell proliferation assay, H460 (non-small-cell lung cancer); format: cell-based; settings: Homo sapiens, NCI-H460, 48 hours
Description: (§1) Cell proliferation was analyzed after 48 hours of in vitro treatment using the CellTiter 96 Aqueous One Solution Cell Proliferation Assay (Promega, Madison, Wis.). This is a colorimetric method for determining the number of viable cells in proliferation.
(§2) For the assay, suspension cells were cultured by triplicate at a density of 1×10^6 cells/ml in 96-well plates (100.000 cells/well, 100 μl/well), except for OCILY-3 and OCILY-10 cell lines which were cultured at a density of 0.5×10^6 cells/ml (50.000 cells/well, 100 μl/well) and for HepG2, Hep3B and PLC/PRF/5 cell ines which were cultured at a density of 3000 cells/well, 100 μl/well). Adherent cells were obtained from 80-90% confluent flasks and 100 μl of cells were seeded at a density of 5000 cells/well in 96-well plates by triplicate. Before addition of the compounds, adherent cells were allowed to attach to the bottom of the wells for 12 hours. […]
(§3) After 48 hours of treatment, plates with suspension cells were centrifuged at 800 g for 10 minutes and medium was removed. […] After 1-3 hours of incubation at 37° C., absorbance was measured at 490 nm in a 96-well plate reader. The background absorbance was measured in wells with only cell line medium and solution reagent. Data was calculated as a percentage of total absorbance of treated cell/absorbance of non treated cells. […]

MGH-U4 = experiment: Cell proliferation assay, MGH-U4 (Bladder); format: cell-based; settings: 48 hours
Description: as §1, §2, §3

MCF-7 = experiment: Cell proliferation assay, MCF-7 (Breast); format: cell-based; settings: Homo sapiens, MCF7, 48 hours
Description: as §1, §2, §3

U266 = experiment: Cell proliferation assay, U266 (MM); format: cell-based; settings: Homo sapiens, U-266, Table 5 comparison
Description: as §1
(§4) For the assay, suspension cells were cultured by triplicate at a density of 1×10^6 cells/ml in 96-well plates (100.000 cells/well, 100 μl/well), except for OCILY-3 and OCILY-10 cell lines which were cultured at a density of 0.5×10^6 cells/ml (50.000 cells/well, 100 μl/well) and for HepG2, Hep3B and PLC/PRF/5 cell ines which were cultured at a density of 3000 cells/well, 100 μl/well). Adherent cells were obtained from 80-90% confluent flasks and 100 μl of cells were seeded at a density of 5000 cells/well in 96-well plates by triplicate. Before addition of the compounds, adherent cells were allowed to attach to the bottom of the wells for 12 hours. In all cases, only the 60 inner wells were used to avoid any border effects.
(§5) After 48 hours of treatment, plates with suspension cells were centrifuged at 800 g for 10 minutes and medium was removed. The plates with adherent cells were flicked to remove medium. Then, cells were incubated with 100 ul/well of medium and 20 ul/well of CellTiter 96 Aqueous One Solution reagent. After 1-3 hours of incubation at 37° C., absorbance was measured at 490 nm in a 96-well plate reader. The background absorbance was measured in wells with only cell line medium and solution reagent. Data was calculated as a percentage of total absorbance of treated cell/absorbance of non treated cells.

UM-UC-7 = experiment: Cell proliferation assay, UM-UC-7 (Bladder); format: cell-based; settings: 48 hours
Description: as §1, §2, §3

HCC95 = experiment: Cell proliferation assay, HCC95 (small-cell lung cancer); format: cell-based; settings: Homo sapiens, non-small-cell lung cancer, 48 hours
Description: as §1, §2, §3

451-LU = experiment: Cell proliferation assay, 451-LU (Melanoma); format: cell-based; settings: 48 hours
Description: as §1, §2, §3

DNMT3B/3L = DNMT3B/3L (Homo sapiens, UniProt Q9UBC3); experiment: DNMT3B enzyme activity assay (chemiluminescence BPS DNMT Universal Assay Kit); format: biochemical
Description: DNMT3A and DNMT3B activity assays were carried out with the chemiluminiscence BPS DNMT Universal Assay Kit (BPS#52035) using a strip 96-well plate pre-coated with DNMT substrate.
The enzyme activity assay protocol is as follows: • Rehydrate the microwells by adding 150 μL of TBST buffer (1× Tris-buffered saline (TBS), pH 8.0, containing 0.05% Tween-20) to every well. Incubate 15 minutes at room temperature. • Dilute each purified DNMT [DNMT3A/3L (BPS#51106) or DNMT3B/3L (BPS#51109)] in 1×DNMT assay buffer 2 (BPS#52201) at 5-10 ng/μL. Keep diluted enzyme on ice until use. • Prepare 50 μL of reaction mixture consisting of 20 μL of DNMT (5-10 ng/μL), 12.5 μL of 4×DNMT assay buffer 2 (BPS#52201), 2.5 μL of S-adenosylmethionine 400 μM, test compound at concentrations ranging from 3 nM to 10 μM and H2O up to 50 μL. • Add the entire reaction mixture to the substrate coated wells. […]
Incubate for 30 min at room temperature with slow shaking. • Wash plate three times with TBST buffer and incubate in Blocking buffer shaking on a rotating platform for 10 min. […] Immediately read luminescence using a BioTek Synergy™2 microplate reader.
The chemiluminescence intensity data were analyzed and compared. […] Calculated IC50 values were determined using non-linear regression analysis of Sigmoidal dose-response curve generated with a four-parameters inhibition curve.

HCT-116 = experiment: Cell proliferation assay, HCT-116 (Colorectal); format: cell-based; settings: Homo sapiens, 48 hours
Description: as §1, §2, §3

HELA = experiment: Cell proliferation assay, HELA (Cervical); format: cell-based; settings: Homo sapiens, 48 hours
Description: as §1, §2, §3

PC3 = experiment: Cell proliferation assay, PC3 (Prostate); format: cell-based; settings: Homo sapiens, PC-3, 48 hours
Description: as §1, §2, §3

LOVO = experiment: Cell proliferation assay, LOVO (Colorectal); format: cell-based; settings: Homo sapiens, 48 hours
Description: as §1, §2, §3

SK-MEL-147 = experiment: Cell proliferation assay, SK-MEL-147 (Melanoma); format: cell-based; settings: Homo sapiens, 48 hours
Description: as §1, §2, §3

MV411 = experiment: Cell proliferation assay, MV411 / MV4-11 (AML); format: cell-based; settings: Homo sapiens
Description: as §1, §4, §5
Compounds 3-04 and 3-07 were tested against different solid tumour and oncohematological cell lines using the cell proliferation protocol described above.

COLO-205 = experiment: Cell proliferation assay, COLO-205 (Colorectal); format: cell-based; settings: Homo sapiens, 48 hours
Description: as §1, §2, §3

A498 = experiment: Cell proliferation assay, A498 (Renal); format: cell-based; settings: Homo sapiens, 48 hours
Description: as §1, §2, §3

MOLM-13 = experiment: Cell proliferation assay, MOLM-13 (AML); format: cell-based; settings: Homo sapiens, 48 hours
Description: as §1, §2, §3

HepG2 = experiment: Cell proliferation assay, HepG2 (HCC); format: cell-based; settings: Homo sapiens, 48 hours of treatment, Table 3
HUH7 = experiment: Cell proliferation assay, HUH7 (Hepatocarcinoma); format: cell-based; settings: Homo sapiens, Huh-7, 48 hours
Description: as §1, §2, §3

RT112 = experiment: Cell proliferation assay, RT112 (Bladder); format: cell-based; settings: Homo sapiens, RT-112, 48 hours
Description: as §1, §2, §3

CAKI-2 = experiment: Cell proliferation assay, CAKI-2 (Renal); format: cell-based; settings: Homo sapiens, 48 hours
Description: as §1, §2, §3

Row | Structure (SMILES) | GI50 (Hep3B) | GI50 (H460) | GI50 (MGH-U4) | GI50 (MCF-7) | GI50 (U266) | GI50 (UM-UC-7) | GI50 (HCC95) | GI50 (451-LU) | IC50 (DNMT3B/3L) | GI50 (HCT-116) | GI50 (HELA) | GI50 (PC3) | GI50 (LOVO) | GI50 (SK-MEL-147) | GI50 (MV411; MV4-11, 48 hours, Table 4) | GI50 (MV411; MV4-11, Table 5 comparison) | GI50 (COLO-205) | GI50 (A498) | GI50 (MOLM-13) | GI50 (HepG2) | further results
1 | COc1cc2c(NCC3CCN(C)CC3)cc(-c3ccc(C)o3)nc2cc1OCCCN1CCCC1 [Compound 3-07] | 100 to 1000 nM | 100 to 1000 nM | 100 to 1000 nM | 1000 to 10000 nM | 1000 to 10000 nM | 100 to 1000 nM | 100 to 1000 nM | ≤ 100 nM | 500 to 1000 nM | 100 to 1000 nM | 100 to 1000 nM | 100 to 1000 nM | 100 to 1000 nM | ≤ 100 nM | 100 to 1000 nM | 100 to 1000 nM | 100 to 1000 nM | 100 to 1000 nM | 1000 to 10000 nM | 100 to 1000 nM | GI50 (HUH7): 100 to 1000 nM; GI50 (RT112): 100 to 1000 nM; GI50 (CAKI-2): 100 to 1000 nM
2 | COc1cc2c(NC3CCN(C)CC3)cc(-c3ccc(C)o3)nc2cc1OCCCN1CCCC1.O=C(O)C(F)(F)F [Compound 3-04, 6-methoxy-2-(5-methyl-2-furyl)-N-(1-methyl-4-piperidyl)-7-(3-pyrrolidin-1-ylpropoxy)quinolin-4-amine; 2,2,2-trifluoroacetic acid] | 100 to 1000 nM | 100 to 1000 nM | 100 to 1000 nM | 100 to 1000 nM | 1000 to 10000 nM | 100 to 1000 nM | 100 to 1000 nM | 100 to 1000 nM | 100 to 500 nM | 100 to 1000 nM | 100 to 1000 nM | 100 to 1000 nM | 1000 to 10000 nM | 100 to 1000 nM | 100 to 1000 nM | 100 to 1000 nM | 100 to 1000 nM | > 10000 nM | 100 to 1000 nM | 100 to 1000 nM | GI50 (HUH7): ≤ 100 nM; GI50 (RT112): 100 to 1000 nM; GI50 (CAKI-2): 1000 to 10000 nM
